Laboratory results from paper PMC8459971, “Evaluation of the hepatotoxicity of the novel GPR40 (FFAR1) agonist CPL207280 in the rat and monkey” (PLoS ONE, 2021).
Where “and” joins values, the source holds several entries; their conditions need not be identical. Identical values can stand only once.

Target: OATP1A2 (Homo sapiens, UniProt P46721)
Experiment: Uptake transporter inhibition assay, OATP1A2;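 further: cellular uptake of a radiolabeled probe substrate in HBSS pH 7.4 at 37 °C with test compound or solvent, measured by liquid scintillation counting of cell lysates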
Settings: OATP1A2; reference inhibitor 500 µM
Experimental: For the uptake transporter inhibition assay, cells were washed twice with 100 μL of the appropriate buffer (HK, pH 7.4) for OATP1B1, followed by HBSS (pH 7.4) for (NTCP, OAT1, OAT2v1, OATP1A2, and OATP1B3). Uptake experiments were carried out at 37 ± 1°C in 50 μL of the respective buffer containing the probe substrate and the compound or solvent. […] After the experiment, cells were washed twice with 100 μL of cold appropriate buffer and lysed with 50 μL of 0.1 M NaOH. Radiolabeled probe substrate transport was determined by measuring an aliquot (35 μL) from each well for liquid scintillation counting.

Chain of OATP1A2 (P46721 whole entry): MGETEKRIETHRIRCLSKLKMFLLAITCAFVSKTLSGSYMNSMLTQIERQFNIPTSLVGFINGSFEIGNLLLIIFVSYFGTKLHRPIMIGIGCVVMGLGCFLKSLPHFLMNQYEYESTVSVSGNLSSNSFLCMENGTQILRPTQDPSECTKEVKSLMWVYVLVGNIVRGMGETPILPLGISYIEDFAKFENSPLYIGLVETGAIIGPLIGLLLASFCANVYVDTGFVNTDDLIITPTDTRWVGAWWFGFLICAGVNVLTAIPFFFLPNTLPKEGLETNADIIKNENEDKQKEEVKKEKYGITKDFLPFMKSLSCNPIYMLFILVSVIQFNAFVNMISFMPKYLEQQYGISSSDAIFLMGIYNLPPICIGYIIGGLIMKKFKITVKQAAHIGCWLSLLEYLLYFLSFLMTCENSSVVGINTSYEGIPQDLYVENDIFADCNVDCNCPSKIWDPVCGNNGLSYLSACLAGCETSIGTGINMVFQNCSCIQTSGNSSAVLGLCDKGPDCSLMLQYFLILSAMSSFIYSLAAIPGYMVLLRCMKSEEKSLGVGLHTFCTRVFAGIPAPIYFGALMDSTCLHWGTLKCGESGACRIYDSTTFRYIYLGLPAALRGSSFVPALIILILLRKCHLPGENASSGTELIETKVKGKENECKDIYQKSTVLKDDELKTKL

## O=C1OC(c2ccc(O)c(S(=O)(=O)O)c2)(c2ccc(O)c(S(=O)(=O)O)c2)c2c(Br)c(Br)c(Br)c(Br)c21 [Sulfobromophthalein]
  Accumulation (counts per minute; CPM) HEK293FT-MOCK: 79 CPM and 76 CPM and 86 CPM
  Accumulation (counts per minute; CPM) HEK293FT-OATP1A2: 880 CPM and 817 CPM and 881 CPM and 862 CPM
